We go through 23 molecules from patent US11708368B2, “Crystal form of ethyl (S)-3-(8-bromo-1-methyl-6-(pyridin-2-yl)-4H-benzo[f]imidazo[1,2-a][1,4]diazepin-4-yl)propanoate hydrochloride” (JIANGSU NHWALUOKANG PHARMACEUTICAL RESEARCH AND DEVELOPMENT …, priority 2018, dated 2023).

The nature of data set [1]: Accelerated stability test (40° C., RH75%), change in degradation product CNS-7054. The format is physicochemical. The following applies: for Change in CNS-7054, Accelerated experiment (40° C., RH75%): 6 months, after packaging, degradation product CNS-7054; for CNS-7054 increase, accelerated experiment (40° C., RH75%): in 1 month, sulfonate of the benzodiazepine derivative. Here is the method: (§1) The compound of Formula I prepared in the above examples were selected, and placed under the conditions of 40° C., RH75% and 25° C., RH60% for an accelerated stability test and a long-term stability test after packaging. The changes in the degradation product (CNS-7054) in these compounds in 6 months were observed, and the results are shown in Table 13 below.
(§2) In addition, a lyophilized preparation made of sulfonates according to the prior art were partially degraded into carboxylic acid (CNS-7054) and released alcohol in both the accelerated and long-term experiments.

A short description of data set [2]: Long-term stability test (25° C., RH60%), change in degradation product CNS-7054. Type of data set: physicochemical. The following applies: for Change in CNS-7054, Long-term experiment (25° C., RH60%): 6 months, after packaging, degradation product CNS-7054; for CNS-7054 increase, long-term experiment (25° C., RH60%): in 3 months, sulfonate of the benzodiazepine derivative. The method, then: as §1, §2

Another data set relates to patients. The following applies: Phase II clinical trial of ICU sedation; cited from earlier work.
Data set [3] has as its system KM mice. Description: 2*ED50 anesthesia pharmacodynamics experiment in KM mice (induction time, duration, walking time). The format is in vivo. The following applies: n=20, dosage 2*ED50, tail vein injection in 5 seconds. Here is the method:
KM mice, half male and half female, 20 mice in each group. […] The time of loss of the righting reflex in mice (induction time), recovery time (duration) and walking time were recorded.

The test system of data set [4] is KM mice. Description: Hypnotic ED50 in KM mice by sequential method (disappearance of righting reflex). The format is in vivo. The following applies: male KM mice, tail vein injection in 5 seconds. Here is the method:
(§3) Sequential method was used to determine the hypnotic ED50 and LD50 in KM mice for the hydrochloride of the benzodiazepine derivative. Healthy and qualified male KM mice were selected, n=10−20. The drug was injected through the tail vein at a constant rate in 5 seconds. After preliminary pre-test, the approximate dosage that may cause hypnosis (or death) of the animals was found as an intermediate dosage in the formal experiment. A group interval of 0.8 was used, and 2-3 dosage groups were set up and down respectively. The formal experiment started with the administration from the intermediate dosage. When the animal was narcotized (or died), the dosage was reduced by one dose. If the animal was not narcotized (or died), the dosage was increased by one until 3-4 repetitions occurred. The ED50 value and LD50 value were measured with the disappearance of righting reflex or death as indicators. The therapeutic index (TI index=[…]) was calculated through LD50 and ED50 values.

Data set [5] deals with KM mice. Description: LD50 in KM mice by sequential method (death). The format is in vivo. The following applies: for TI (therapeutic index): KM mice, calculated through LD50 and ED50 values; for LD50 (95% confidence interval): male KM mice, tail vein injection in 5 seconds, death, sequential method. The method, then: as §3

For `CCOC(=O)CCC1N=C(c2ccccn2)c2cc(Br)ccc2-n2c(C)cnc21.Cl` (stereo not shown) [Ethyl, 2.8% glycine], in data set [1], the “Change in CNS-7054, Accelerated experiment (40° C., RH75%)” value (from here on “Change … (40° C., RH75%)”) is “Not increased”. In addition, the “Change in CNS-7054, Long-term experiment (25° C., RH60%)” value (shortened to “Change … (25° C., RH60%)”) in data set [2] was “Not increased”.

With `CCOC(=O)CCC1N=C(c2ccccn2)c2cc(Br)ccc2-n2c(C)cnc21.Cl` (stereo not shown) [Ethyl, 4.5% glycine], the “Change … (40° C., RH75%)” value in data set [1] was “Not increased”. Moreover, in data set [2], the “Change … (25° C., RH60%)” value was “Not increased”.

For the molecule `CCOC(=O)CCC1N=C(c2ccccn2)c2cc(Br)ccc2-n2c(C)cnc21.Cl` (stereo not shown) [Ethyl, 4% valine], the “Change … (40° C., RH75%)” value in data set [1] was “Increased by 0.01%”.

As for `COC(=O)CC[C@@H]1N=C(c2ccccn2)c2cc(Br)ccc2-n2c(C)cnc21` [Remimazolam], in the data set with patients, the “hemodynamics of the patients after receiving the drug” value is given as “unstable” and the “patients with plasma concentration higher than the normal range” value is on record as 10%.

Regarding `CCOC(=O)CCC1N=C(c2ccccn2)c2cc(Br)ccc2-n2c(C)cnc21.Cl` (stereo not shown) [Ethyl, None], the “Change … (40° C., RH75%)” value in data set [1] was “Not increased”. Besides, in data set [2], the “Change … (25° C., RH60%)” value was “Not increased”.

With `COC(=O)CCC1N=C(c2ccccn2)c2cc(Br)ccc2-n2c(C)cnc21.Cl` (stereo not shown) [Methyl, 3% glycine], the “Change … (40° C., RH75%)” value in data set [1] is given as “Not increased”. Further, the “Change … (25° C., RH60%)” value in data set [2] was “Not increased”.

As for `CCOC(=O)CCC1N=C(c2ccccn2)c2cc(Br)ccc2-n2c(C)cnc21.Cc1ccc(S(=O)(=O)O)cc1` (stereo not shown), in data set [1], the “CNS-7054 increase, accelerated experiment (40° C., RH75%)” value (from here on “CNS-7054 increase … (40° C., RH75%)”) is reported as “Increased by 0.2%”. The “CNS-7054 increase, long-term experiment (25° C., RH60%)” value (“CNS-7054 increase … (25° C., RH60%)” for short) in data set [2] is “Increased by 0.1%”.

In the case of `CCOC(=O)CCC1N=C(c2ccccn2)c2cc(Br)ccc2-n2c(C)cnc21.O=S(=O)(O)c1ccccc1` (stereo not shown) [Positive control 2], in the data set with KM mice [3], the “Number of animals with duration time longer than 10 min” value is on record as 7/20, the “Number of animals with walking time longer than 1 min” value was 10/20, the Walking time came to 192.9 ± 268.98 s and the “duration time (recovery time)” value was determined as 443.75 ± 247.86 s. The “induction time (time of loss of the righting reflex)” value in the data set on KM mice [3] worked out at 17.1 ± 2.00 s.

Regarding `COC(=O)CC[C@@H]1N=C(c2ccccn2)c2cc(Br)ccc2-n2c(C)cnc21.O=S(=O)(O)c1ccccc1`, in data set [1], the “CNS-7054 increase … (40° C., RH75%)” value is given as “Increased by 0.07%”. Moreover, the “CNS-7054 increase … (25° C., RH60%)” value in data set [2] is reported as “Increased by 0.04%”.

In the case of `CCOC(=O)CCC1N=C(c2ccccn2)c2cc(Br)ccc2-n2c(C)cnc21.Cl` (stereo not shown) [Ethyl, 4% alanine], the “Change … (40° C., RH75%)” value in data set [1] is on record as “Increased by 0.01%”. Besides, the “Change … (25° C., RH60%)” value in data set [2] is “Not increased”.

As to `COC(=O)CCC1N=C(c2ccccn2)c2cc(Br)ccc2-n2c(C)cnc21.Cl` (stereo not shown) [Methyl, 2% glycine], in data set [1], the “Change … (40° C., RH75%)” value is reported as “Not increased”. Further, in data set [2], the “Change … (25° C., RH60%)” value is reported as “Not increased”.

For `CCOC(=O)CCC1N=C(c2ccccn2)c2cc(Br)ccc2-n2c(C)cnc21.Cl` (stereo not shown) [Ethyl, 1.7% glycine], the “Change … (40° C., RH75%)” value in data set [1] is on record as “Not increased”. In addition, in data set [2], the “Change … (25° C., RH60%)” value is listed as “Not increased”.

Consider `COC(=O)CCC1N=C(c2ccccn2)c2cc(Br)ccc2-n2c(C)cnc21.Cl` (stereo not shown) [Methyl, None], for which, in data set [1], the “Change … (40° C., RH75%)” value is recorded as “Not increased”.

On to `CCOC(=O)CCC1N=C(c2ccccn2)c2cc(Br)ccc2-n2c(C)cnc21.O=S(=O)(O)c1ccccc1` (stereo not shown) [positive control 2], for which the “ED50 (95% confidence interval)” value with KM mice [4] is reported as 15.62 mg/kg. For the same molecule, in the data set on KM mice [5], the “TI (therapeutic index)” value was 16.8 and the “LD50 (95% confidence interval)” value is listed as 263.14 mg/kg.

As for `COC(=O)CCC1N=C(c2ccccn2)c2cc(Br)ccc2-n2c(C)cnc21.Cl` (stereo not shown) [Methyl, 5% alanine], the “Change … (40° C., RH75%)” value in data set [1] is recorded as “Increased by 0.01%”. The “Change … (25° C., RH60%)” value in data set [2] is reported as “Not increased”.

As to `COC(=O)CCC1N=C(c2ccccn2)c2cc(Br)ccc2-n2c(C)cnc21.Cl` (stereo not shown) [Methyl, 4% valine], the “Change … (40° C., RH75%)” value in data set [1] is listed as “Increased by 0.01%”. Further, in data set [2], the “Change … (25° C., RH60%)” value is given as “Not increased”.

Regarding `COC(=O)CCC1N=C(c2ccccn2)c2cc(Br)ccc2-n2c(C)cnc21.O=S(=O)(O)c1ccccc1` (stereo not shown) [Positive control 1], in the data set with KM mice [3], the “Number of animals with duration time longer than 10 min” value is reported as 9/20, the “Number of animals with walking time longer than 1 min” value is given as 17/20, the Walking time is reported as 514.95 ± 525.16 s and the “duration time (recovery time)” value is 692.3 ± 399.15 s. Also, the “induction time (time of loss of the righting reflex)” value with KM mice [3] was 17.6 ± 1.93 s.

Take `CCOC(=O)CC[C@@H]1N=C(c2ccccn2)c2cc(Br)ccc2-n2c(C)cnc21.Cl` [R is ethyl, hydrochloride, ethyl (S)-3-(8-bromo-1-methyl-6-(pyridin-2-yl)-4H-benzo[f]imidazo[1,2-a][1,4]diazepin-4-yl)propanoate hydrochloride]: in the data set with KM mice [3], the “incidence of the animal anesthesia time of more than 10 minutes” value is 20% and the “incidence of the animal walking time of more than 1 min” value worked out at 15%.

Regarding `COC(=O)CCC1N=C(c2ccccn2)c2cc(Br)ccc2-n2c(C)cnc21.O=S(=O)(O)c1ccccc1` (stereo not shown) [positive control 1], in the data set on KM mice [4], the “ED50 (95% confidence interval)” value turned out to be 40.64 mg/kg. In the data set on KM mice [5], the “TI (therapeutic index)” value is listed as 6.6 and the “LD50 (95% confidence interval)” value worked out at 270.09 mg/kg.

Take `COC(=O)CCC1N=C(c2ccccn2)c2cc(Br)ccc2-n2c(C)cnc21.Cl` (stereo not shown) [Methyl, 4% glycine]: the “Change … (40° C., RH75%)” value in data set [1] is “Increased by”. The “Change … (25° C., RH60%)” value in data set [2] is “Not increased”.

Regarding `CCOC(=O)CCC1N=C(c2ccccn2)c2cc(Br)ccc2-n2c(C)cnc21.O=S(=O)(O)c1ccccc1` (stereo not shown), the “CNS-7054 increase … (40° C., RH75%)” value in data set [1] is recorded as “Increased by 0.05%”. For the same molecule, the “CNS-7054 increase … (25° C., RH60%)” value in data set [2] is recorded as “Increased by 0.03%”.

Regarding `COC(=O)CCC1N=C(c2ccccn2)c2cc(Br)ccc2-n2c(C)cnc21.Cc1ccc(S(=O)(=O)O)cc1` (stereo not shown), in data set [1], the “CNS-7054 increase … (40° C., RH75%)” value is “Increased by 0.1%”. Further, the “CNS-7054 increase … (25° C., RH60%)” value in data set [2] is on record as “Increased by 0.1%”.

In the case of `CCOC(=O)CCC1N=C(c2ccccn2)c2cc(Br)ccc2-n2c(C)cnc21.Cl` (stereo not shown) [Ethyl, 5% alanine], the “Change … (40° C., RH75%)” value in data set [1] is “Increased by 0.01%”. Besides, the “Change … (25° C., RH60%)” value in data set [2] is “Not increased”.
